Assay results: patent publication US11702630B2, “In vitro methods of differentiating stem cells into neurons and neurons generated using the same” (The J. David Gladstone Institutes, a testamentary trust …, priority 2016, dated 2023)

Legend:
Format in all cases: cell-based, human
hPSCs [1] = experiment: Flow cytometry of CHX10 at day 17 of V2a interneuron differentiation
Description: hPSCs were seeded in mTeSR supplemented with 10 μM ROCK inhibitor and dual SMAD inhibitors 0.2 μM LDN193189 and 10 μM SB431542 ([…], Cambridge, Mass.) at 5,000-100,000 cells/cm^2 onto 24-well plates coated with Matrigel. On day 3, medium was changed to mTeSR supplemented with dual SMAD inhibitors only. On day 5, the base medium was switched to neural induction medium (DMEM F:12 (Corning), N2 supplement (Life Technologies, Carlsbad, Calif.), L-Glutamine (VWR), 2 μg/ml heparin (Sigma Aldrich, St. Louis, Mo.), non-essential amino acids (VWR), penicillin-streptomycin (VWR) supplemented with fresh 0.4 μg/ml ascorbic acid (Sigma Aldrich) and 10 ng/ml brain derived neurotrophin factor (BDNF, R&D Systems, Minneapolis, Minn.)) supplemented with dual SMAD inhibitors and 10 nM-10 μM retinoic acid (Sigma Aldrich). […] Medium was changed every 2 to 3 days throughout the differentiation, with fresh supplements added each time for up to 17 days.

hPSCs [2] = experiment: Total number of cells and yield of CHX10+ cells per input pluripotent cell at day 17; settings: for number of viable cells per 24-well culture at day 17: 100 nM RA and 100 nM pur, FIG. 2B
Description: hPSCs were seeded in mTeSR supplemented with 10 μM ROCK inhibitor and dual SMAD inhibitors 0.2 μM LDN193189 and 10 μM SB431542 (StemGent, Cambridge, Mass.) at 5,000-100,000 cells/cm^2 onto 24-well plates coated with Matrigel. On day 3, medium was changed to mTeSR supplemented with dual SMAD inhibitors only. On day 5, the base medium was switched to neural induction medium (DMEM F:12 (Corning), N2 supplement (Life Technologies, Carlsbad, Calif.), L-Glutamine (VWR), 2 μg/ml heparin (Sigma Aldrich, St. Louis, Mo.), non-essential amino acids (VWR), penicillin-streptomycin (VWR) supplemented with fresh 0.4 μg/ml ascorbic acid (Sigma Aldrich) and 10 ng/ml brain derived neurotrophin factor (BDNF, R&D Systems, Minneapolis, Minn.)) supplemented with dual SMAD inhibitors and 10 nM-10 μM retinoic acid (Sigma Aldrich). On day 7, dual SMAD inhibition was ceased and 10 nM-10 μM retinoic acid, 10 nM-10 μM pur (EMD Millipore, Darmstast, Germany) and 100 nM-10 μM N—[N-(3,5-Difluorophenacetyl)-L-alanyl]-S-phenylglycine t-butyl ester (DAPT) were added to the neural induction medium. Medium was changed every 2 to 3 days throughout the differentiation, with fresh supplements added each time for up to 17 days.

pluripotent stem cells [3] = experiment: Wnt activation in the V2a interneuron protocol, % CHX10+ cells; settings: FIG. 20A
Description: (§1) For the “D0 CHIR treated” group, the GSK3 inhibitor, 2 μM CHIR990201 was added into the V2a interneuron protocol from day 0 to day 7. For the “D-2 CHIR treated” group, pluripotent stem cells were initially seeded at a higher density (120 k cells/cm^2) in the presence of 2 μM CHIR990201 for two days. The cells were then dissociated and re-plated at 25 k/cm^2 to begin the V2a interneuron protocol. CHIR990201 was kept in the media composition from day 0 to day 7. Further culture and analysis proceeded as previously described.

pluripotent stem cells [4] = experiment: Wnt activation in the V2a interneuron protocol, gene expression of cervical and thoracic markers; settings: FIG. 20B
Description: Samples were lysed and RNA was extracted using the E.Z.N.A. Total RNA Kit (Omega Biotek, Norcross, Ga.). RNA (500 ng) was reverse-transcribed into cDNA using the iScript cDNA synthesis kit (BioRad, Hercules, Calif.). RT-qPCR was performed using Fast SYBR Green Master Mix (Life Technologies) and the primers listed in Table 1 below were annealed at 61° C. on the Step One Plus Real-Time PCR System (Life Technologies). Fold changes were calculated using the ΔΔCt method. For high throughput gene expression analysis, Fluidigm was used. Preamplified cDNA samples and primers were mixed with Sso Fast EvaGreen Supermix (BioRad) then loaded onto a 96.96 Dynamic Array integrated fluidic circuit (IFC) and ran on a BioMark HD system.
as §1

[5] = 2 μM CHIR added at D0, day 0 to day 7
[6] = 2 μM CHIR added at D-2 and passage with CHIR, kept to day 7

CC1=C(/C=C/C(C)=C/C=C/C(C)=C/C(=O)O)C(C)(C)CCC1 [RA, retinoic acid]
CHX10+ population at day 17 (hPSCs [1]; RA 100 nM starting at day 5, pur 1 μM and DAPT 5 μM from day 7, FIG. 1C): ~6%

C[C@H](NC(=O)Cc1cc(F)cc(F)c1)C(=O)NC(C(=O)OC(C)(C)C)c1ccccc1 (some centres unmarked) [DAPT]
CHX10+ population at day 17 (hPSCs [1]; DAPT 5 μM from day 7, RA and pur 100 nM each, FIG. 1E): ~15% | CHX10+ population at day 17 (hPSCs [1]; DAPT 1 μm from day 7, RA and pur 100 nM each, FIG. 1E): ~15% | increase in number of CHX10+ cells per input pluripotent cell (hPSCs [2]; 1 μM DAPT compared with 5 μM DAPT, FIG. 2C): ~50% | number of viable cells per 24-well culture at day 17 (hPSCs [2]; DAPT 1 μM): 4.40 million cells | number of viable cells per 24-well culture at day 17 (hPSCs [2]; DAPT 5 μM): 2.85 million cells

c1ccc2c(Oc3nc(Nc4ccc(N5CCOCC5)cc4)c4ncn(C5CCCCC5)c4n3)cccc2c1 [pur, 9-Cyclohexyl-N-[4-(4-morpholinyl)phenyl]-2-(1-naphthalenyloxy)-9H-purin-6-amine]
Chx10+ cells after 17 days of differentiation (hPSCs [1]; pur 100 nM from day 7, 100 nM RA and 5 μM DAPT, FIG. 1D): ~30%

Cc1cnc(-c2cnc(NCCNc3ccc(C#N)cn3)nc2-c2ccc(Cl)cc2Cl)[nH]1 [CHIR, 6-[[2-[[4-(2,4-Dichlorophenyl)-5-(5-methyl-1H-imidazol-2-yl)-2-pyrimidinyl]amino]ethyl]amino]-3-pyridinecarbonitrile]
% of CHX10+ cells (pluripotent stem cells [3]; [5]): did not decrease | % of CHX10+ cells (pluripotent stem cells [3]; [6]): greatly increased | cervical and thoracic gene expression (pluripotent stem cells [4]; [5]): slightly increased | cervical and thoracic gene expression (pluripotent stem cells [4]; [6]): increased
